The values that follow come from US4789736A, “Complexes of technetium-99m with propylene amine oximes” (Amersham International plc, priority 1985, dated 1988).

Structures are written as SMILES.

A short description of series [1]: Animal biodistribution of Tc-99m complexes of ligands, no separation of stereoisomers (Example 22). Particulars: i.v. rats. Format: in vivo, rats. The method, then: The ratio of diastereoisomers in the Tc-99m complexes used in this experiment is not known.
The results at 2 minutes and 1 hour p.i. are the mean of 3 animals.
The results at 2 hours p.i. are the mean of 2 animals.

Series [2] can be described thus: Rat biodistribution of Tc-99m complexes from isolated stereoisomers (Example 24). Conditions: for % id/organ, Blood / % id/organ, Brain / % id/organ, Heart / % id/organ, Liver: (a) diastereoisomers, rats, mean from 3 animals; for difference in brain uptake, dl-isomer versus meso-isomer: in words, see Example 24.
Procedure: 0.1 ml of the Tc-99m complex solution was administered by intravenous injection (lateral tail vein) to each of five or six rats (140-220 g). The injected dose was equivalent to approximately 1 mCi of Tc-99m. Three rats were sacrificed at 2 minutes post injection, and 3 at 1 hour or 2 at 2 hours post injection. At dissection, the organs and blood samples shown in the following table were taken, and assayed for radioactivity. The uptake in each organ or tissue was calculated as a percentage of the total activity recovered.
Data in Tables (a) and (b) are the mean from 3 animals at each time point.

Turning to `CC(=NO)C(NCCCNC(C(C)=NO)c1ccccc1)c1ccccc1` (stereo not drawn) [Compound 10, 4,8-Diaza-3,9-diphenylundecane-2,10-dione bis oxime], in series [1] (2 min pi, mean of 3 animals), the “% id/organ, Blood” value is 14.0 % id/organ; the “% id/organ, Brain” value stood at 0.4 % id/organ; the “% id/organ, Heart” value is recorded as 0.5 % id/organ; the “% id/organ, Liver” value worked out at 32.9 % id/organ. Further, in series [1] (2 hr pi, mean of 2 animals), the “% id/organ, Blood” value came to 2.7 % id/organ; the “% id/organ, Brain” value was 0.6 % id/organ; the “% id/organ, Heart” value was determined as 0.3 % id/organ; the “% id/organ, Liver” value worked out at 16.9 % id/organ.
For the compound `CCC(=NO)C(C)NCC(C)(C)CNC(C)C(CC)=NO` (stereo not drawn) [Compound 6, 5,9-Diaza-4,7,7,10-tetramethyltridecane-3,11-dione bis oxime], in series [1] (2 min pi, mean of 3 animals), the “% id/organ, Blood” value is on record as 5.8 % id/organ; the “% id/organ, Brain” value is given as 1.2 % id/organ; the “% id/organ, Heart” value is on record as 0.4 % id/organ; the “% id/organ, Liver” value was 19.6 % id/organ. In addition, in series [1] (2 hr pi, mean of 2 animals), the “% id/organ, Blood” value was determined as 2.6 % id/organ; the “% id/organ, Brain” value is recorded as 0.4 % id/organ; the “% id/organ, Heart” value is listed as 0.2 % id/organ; the “% id/organ, Liver” value came to 13.5 % id/organ.
In the case of `CC(C)C(=NO)C(C)NCCCNC(C)C(=NO)C(C)C` (stereo not drawn) [Compound 13, 5,9-Diaza-2,4,10,12-tetramethyltridecane-3,11-dione bis oxime], in series [1] (2 min pi, mean of 3 animals), the “% id/organ, Blood” value worked out at 15.2 % id/organ; the “% id/organ, Brain” value was 0.5 % id/organ; the “% id/organ, Heart” value came out at 0.6 % id/organ; the “% id/organ, Liver” value is listed as 15.9 % id/organ. In series [1] (1 hr pi, mean of 3 animals), the “% id/organ, Blood” value amounted to 7.2 % id/organ; the “% id/organ, Brain” value amounted to 0.2 % id/organ; the “% id/organ, Heart” value stood at 0.2 % id/organ; the “% id/organ, Liver” value was found to be 12.5 % id/organ.
For the compound `CCC(=NO)C(C)NCCCNC(C)C(CC)=NO` (stereo not drawn) [Compound 4, 5,9-Diaza-4,10-dimethyltridecane-3,11-dione bis oxime], in series [1] (2 min pi, mean of 3 animals), the “% id/organ, Blood” value was 13.4 % id/organ; the “% id/organ, Brain” value turned out to be 1.6 % id/organ; the “% id/organ, Liver” value is listed as 15.6 % id/organ. For the same compound, in series [1] (1 hr pi, mean of 3 animals), the “% id/organ, Blood” value is reported as 5.7 % id/organ; the “% id/organ, Brain” value came to 1.5 % id/organ; the “% id/organ, Liver” value stood at 12.7 % id/organ.
Consider `CC(=NO)[C@H](C)NCCCN[C@@H](C)C(C)=NO` (relative stereo) [Compound 2 d1], for which, in series [2] (2 mins pi), the “% id/organ, Blood” value is given as 10.5 % id/organ; the “% id/organ, Brain” value was 1.8 % id/organ; the “% id/organ, Heart” value turned out to be 1.1 % id/organ; the “% id/organ, Liver” value stood at 11.6 % id/organ. In addition, in series [2] (1 hr pi), the “% id/organ, Blood” value was 7.8 % id/organ; the “% id/organ, Brain” value was 1.5 % id/organ; the “% id/organ, Heart” value stood at 0.7 % id/organ; the “% id/organ, Liver” value was found to be 9.4 % id/organ. Further, the “difference in brain uptake, dl-isomer versus meso-isomer” value in series [2] is on record as “do not show any marked difference in brain uptake”.
As for `CC(=NO)C(C)NC(C)CC(C)NC(C)C(C)=NO` (stereo not drawn) [Compound 12, 4,8-Diaza-3,5,7,9-tetramethylundecane-2,10 bis oxime], in series [1] (2 min pi, mean of 3 animals), the “% id/organ, Blood” value is 8.6 % id/organ; the “% id/organ, Brain” value is given as 1.0 % id/organ; the “% id/organ, Heart” value is 0.5 % id/organ; the “% id/organ, Liver” value is recorded as 23.9 % id/organ. Besides, in series [1] (1 hr pi, mean of 3 animals), the “% id/organ, Blood” value came out at 6.0 % id/organ; the “% id/organ, Brain” value is listed as 0.9 % id/organ; the “% id/organ, Heart” value is 0.3 % id/organ; the “% id/organ, Liver” value is given as 19.7 % id/organ.
With `CCC(CC)(CNC(C)C(C)=NO)CNC(C)C(C)=NO` (stereo not drawn) [Compound 7, 4,8-Diaza-6,6-diethyl-3,9-dimethylundecane-2,10-dione bis oxime], in series [1] (2 min pi, mean of 3 animals), the “% id/organ, Blood” value amounted to 7.4 % id/organ; the “% id/organ, Brain” value was found to be 1.0 % id/organ; the “% id/organ, Liver” value stood at 20.6 % id/organ. For the same compound, in series [1] (1 hr pi, mean of 3 animals), the “% id/organ, Blood” value is reported as 3.3 % id/organ; the “% id/organ, Brain” value is recorded as 0.5 % id/organ; the “% id/organ, Liver” value was 36.5 % id/organ.
Take `CCC(NCCCNC(CC)C(C)=NO)C(C)=NO` (stereo not drawn) [Compound 3, 4,8-Diaza-3,9-diethylundecane-2,10-dione bis oxime]: in series [1] (2 min pi, mean of 3 animals), the “% id/organ, Blood” value came to 6.8 % id/organ; the “% id/organ, Brain” value was determined as 1.1 % id/organ; the “% id/organ, Heart” value amounted to 0.2 % id/organ; the “% id/organ, Liver” value worked out at 27.8 % id/organ. Moreover, in series [1] (2 hr pi, mean of 2 animals), the “% id/organ, Blood” value is 2.1 % id/organ; the “% id/organ, Brain” value was 0.7 % id/organ; the “% id/organ, Heart” value was 0.1 % id/organ; the “% id/organ, Liver” value is 17.0 % id/organ.
Turning to `CC(=NO)[C@H](C)NCCCN[C@H](C)C(C)=NO` [Compound 2 meso], in series [2] (2 mins pi), the “% id/organ, Blood” value came to 6.9 % id/organ; the “% id/organ, Brain” value worked out at 1.7 % id/organ; the “% id/organ, Heart” value worked out at 0.6 % id/organ; the “% id/organ, Liver” value was determined as 17.9 % id/organ. Further, in series [2] (1 hr pi), the “% id/organ, Blood” value amounted to 2.8 % id/organ; the “% id/organ, Brain” value is given as 1.4 % id/organ; the “% id/organ, Heart” value is listed as 0.2 % id/organ; the “% id/organ, Liver” value is on record as 20.7 % id/organ. For the same compound, in series [2], the “difference in brain uptake, dl-isomer versus meso-isomer” value is “do not show any marked difference in brain uptake”.
For the compound `CC(=NO)C(C)NCC(C)CNC(C)C(C)=NO` (stereo not drawn) [Compound 11, 4,8-Diaza-3,6,9-trimethylundecane-2,10-dione bis oxime], in series [1] (2 min pi, mean of 3 animals), the “% id/organ, Blood” value was 11.9 % id/organ; the “% id/organ, Brain” value came to 1.3 % id/organ; the “% id/organ, Heart” value came out at 0.8 % id/organ; the “% id/organ, Liver” value came to 12.3 % id/organ. Besides, in series [1] (1 hr pi, mean of 3 animals), the “% id/organ, Blood” value is given as 4.7 % id/organ; the “% id/organ, Brain” value is listed as 1.0 % id/organ; the “% id/organ, Heart” value turned out to be 0.4 % id/organ; the “% id/organ, Liver” value worked out at 10.2 % id/organ.
On to `CCCC(=NO)C(C)NCCCNC(C)C(CCC)=NO` (stereo not drawn) [Compound 5, 6,10-Diaza-5,11-dimethylpentadecane-4,12-dione bis oxime], for which, in series [1] (2 min pi, mean of 3 animals), the “% id/organ, Blood” value is recorded as 10.5 % id/organ; the “% id/organ, Brain” value is on record as 0.8 % id/organ; the “% id/organ, Liver” value came to 18.0 % id/organ. In addition, in series [1] (1 hr pi, mean of 3 animals), the “% id/organ, Blood” value was 2.8 % id/organ; the “% id/organ, Brain” value came to 0.6 % id/organ; the “% id/organ, Liver” value came out at 12.1 % id/organ.
